Test results from US20240294466A1, “SODIUM N-(8-(2- HYDROXYBENZOYL)AMINO)CAPRYLATE P[…] A” (Novo Nordisk A/S, priority 2021, published 2024).

Tests used:
Assay type in all cases: physicochemical
[1] = XRPD FWHM of the peak at 8.7±0.2° 2θ (degree of crystal imperfections), method 1; conditions: Batch 5, tray oven
Description: (§1) XRPD was performed using a Malvern Panalytical Empyrean diffractometer at ambient conditions. The diffraction pattern was measured at room temperature using an Empyrean Cu LFF HR (45 kV/40 mA) source and PIXcel3D-Medipix3 1×1 detector. The measurement was performed in the range of 2-40° 20 using a scan speed of 0.067335° 2θ/s and a step size of 0.0262606° 2θ. The samples were measured in transmission mode and with a spinner revolution time of 1 second. Approximately 200 mg of sample were placed between two sheets of Kapton Polyimide Thin-film. The measurements were performed using a Soller slit of 0.04 radians and a fixed divergence slit of 0.5° on the incident beam, and a 3 mm Anti scatter slit and a Soller slit of 0.04 radians in the diffracted beam.
The degree of crystal imperfections was assessed by use of the FWHM as more crystal imperfections might cause peak broadening and lower peak height, which leads to higher FWHM values due to fewer lattice planes with identical orientation contributing to the diffraction peak. Oppositely, in the absence of crystal imperfections, lattice planes with identical orientation increase and result in narrower and higher diffraction peaks leading to smaller FWHM values. The FWHM was calculated using the characteristic peak at 8.7±0.2° 2θ by finding the apex of the peak and measuring the height of the peak applying the x-axis as the baseline (automatic mode) (see FIG. 11) or applying a baseline spanning the two surrounding troughs (manual mode) (see FIG. 12). This value is then divided in half to find the half height. Hereafter the width of the peak at that half height is measured and reported in ° 2θ. Alternatively, the peak at 6.0±0.2° 2θ may also be used to calculate the FWHM.
(§2) Samples from a batch of SNAC polymorphic form A (Batch 5) with a FWHM of 0.97° 2θ (automatic mode) and a moisture uptake of 1.98% at 65% RH from the beginning were heated to 90, 100, 110, 120, 130, and 140° C., respectively, in a tray oven. The samples were exposed to their respective temperatures for up to 72 h. The sample size was small enough to ensure that the samples equilibrated completely, within a few of minutes, to the oven temperature. Samples were taken during the 72 h of elevated temperature exposure and subjected to XRPD measurements in accordance with method 1 to determine the polymorphic form and impact on crystal imperfections using FWHM with the x-axis as the baseline (automatic mode).
(§3) Samples from different batches of SNAC polymorphic form A were subjected to a heat treatment in a tray oven and the sample size was small enough to ensure that the samples equilibrated completely and within a couple of minutes to the oven temperature. Samples were taken from the batches before the heat treatment and after the heat treatment and subjected to XRPD measurements in accordance with method 1 to determine the polymorphic form and impact on crystal imperfections using FWHM with the x-axis as the baseline (auto mode). Furthermore, samples were also subjected to DVS measurements in accordance with method 3 to determine the impact of the heat treatment on the hygroscopicity.

[2] = Polymorphic form determined by XRPD, method 1; conditions: for Polymorphic form of SNAC determined by XRPD: Batch 5, tray oven
Description: as §1
The polymorphic form of the sample was determined by comparison of the diffractogram obtained for the sample with reference diffractograms for the SNAC polymorphs and solvates.
as §2, §3

[3] = Dynamic vapour sorption (DVS) moisture uptake, method 3; conditions: for mass increase when subjected to an increase in relative humidity from about 0% to about 65% RH as determined by DVS: 25° C.; for Moisture absorbed for SNAC at 65% RH determined by DVS: DVS at 25 °C
Description: Moisture sorption/desorption data were measured by a Dynamic Vapour Sorption Advantage 1 from Surface Measurement Systems. Prior to analysis the samples were dried for up to about 48 h in desiccators containing phosphorus pentoxide. Approximately 20 mg of sample was placed into a balance pan and loaded into the instrument and the sample was then further dried for a minimum of 500 min in the instrument at 0% RH using a nitrogen purge. The resulting sample weight after the further drying was assigned as the 0% start weight and all weight gains and losses was calculated relative to this start weight. Sorption and desorption isotherms were collected over a range from 0 to 90% relative humidity (RH) using a nitrogen purge at 25° C. The threshold for equilibrium used for analysis was 0.002 to 0.0005 dm/dt.
Furthermore, samples were taken after 24 h of exposure at the indicated elevated temperatures and were subjected to dynamic vapor sorption measurements in accordance with method 3 to determine the hygroscopicity. The moisture uptake was measured at 65% RH. The hygroscopicity is decreased as the moisture absorbed at 65% RH decreases when exposing SNAC polymorphic form A to elevated temperatures for 24 h.

In the case of `O=C([O-])CCCCCCCNC(=O)c1ccccc1O.[Na+]` [SNAC, monosodium N-[8-(2-hydroxybenzoyl)-amino]caprylate], the “FWHM (automatic mode) for the XRPD peak around 8.7 ± 0.2° 2θ” value (from here on “FWHM (automatic mode)”) ([1]; 90 °C, 0 h) is reported as 0.97 ° 2θ, the “FWHM (automatic mode)” value ([1]; 90 °C, 0.25 h) is reported as 0.95 ° 2θ and the “FWHM (automatic mode)” value ([1]; 90 °C, 0.5 h) is reported as 0.95 ° 2θ. For the same compound, the “FWHM (automatic mode)” value ([1]; 90 °C, 1 h) was 0.92 ° 2θ, the “FWHM (automatic mode)” value ([1]; 90 °C, 6 h) was 0.92 ° 2θ and the “FWHM (automatic mode)” value ([1]; 90 °C, 24 h) was 0.89 ° 2θ. For the same compound, the “FWHM (automatic mode)” value ([1]; 90 °C, 48 h) was 0.89 ° 2θ, the “FWHM (automatic mode)” value ([1]; 90 °C, 72 h) was 0.89 ° 2θ and the “FWHM (automatic mode)” value ([1]; 100 °C, 0 h) was 0.97 ° 2θ. The “FWHM (automatic mode)” value ([1]; 100 °C, 0.25 h) was 1.02 ° 2θ, the “FWHM (automatic mode)” value ([1]; 100 °C, 0.5 h) was 0.95 ° 2θ and the “FWHM (automatic mode)” value ([1]; 100 °C, 1 h) was 0.95 ° 2θ. For the same compound, the “FWHM (automatic mode)” value ([1]; 100 °C, 6 h) was 0.89 ° 2θ, the “FWHM (automatic mode)” value ([1]; 100 °C, 24 h) was 0.81 ° 2θ and the “FWHM (automatic mode)” value ([1]; 100 °C, 48 h) was 0.81 ° 2θ. The “FWHM (automatic mode)” value ([1]; 100 °C, 72 h) was 0.81 ° 2θ, the “FWHM (automatic mode)” value ([1]; 110 °C, 0 h) was 0.97 ° 2θ and the “FWHM (automatic mode)” value ([1]; 110 °C, 0.25 h) was 0.92 ° 2θ. For the same compound, the “FWHM (automatic mode)” value ([1]; 110 °C, 0.5 h) was 0.84 ° 2θ, the “FWHM (automatic mode)” value ([1]; 110 °C, 1 h) was 0.87 ° 2θ and the “FWHM (automatic mode)” value ([1]; 110 °C, 6 h) was 0.71 ° 2θ. The “FWHM (automatic mode)” value ([1]; 110 °C, 24 h) was 0.66 ° 2θ, the “FWHM (automatic mode)” value ([1]; 110 °C, 48 h) was 0.60 ° 2θ and the “FWHM (automatic mode)” value ([1]; 110 °C, 72 h) was 0.58 ° 2θ. For the same compound, the “FWHM (automatic mode)” value ([1]; 120 °C, 0 h) was 0.97 ° 2θ, the “FWHM (automatic mode)” value ([1]; 120 °C, 0.25 h) was 0.81 ° 2θ and the “FWHM (automatic mode)” value ([1]; 120 °C, 0.5 h) was 0.76 ° 2θ. The “FWHM (automatic mode)” value ([1]; 120 °C, 1 h) was 0.71 ° 2θ, the “FWHM (automatic mode)” value ([1]; 120 °C, 6 h) was 0.63 ° 2θ and the “FWHM (automatic mode)” value ([1]; 120 °C, 24 h) was 0.58 ° 2θ. For the same compound, the “FWHM (automatic mode)” value ([1]; 120 °C, 48 h) was 0.58 ° 2θ, the “FWHM (automatic mode)” value ([1]; 120 °C, 72 h) was 0.53 ° 2θ and the “FWHM (automatic mode)” value ([1]; 130 °C, 0 h) was 0.97 ° 2θ. The “FWHM (automatic mode)” value ([1]; 130 °C, 0.25 h) was 0.81 ° 2θ, the “FWHM (automatic mode)” value ([1]; 130 °C, 0.5 h) was 0.74 ° 2θ and the “FWHM (automatic mode)” value ([1]; 130 °C, 1 h) was 0.66 ° 2θ. For the same compound, the “FWHM (automatic mode)” value ([1]; 130 °C, 6 h) was 0.50 ° 2θ, the “FWHM (automatic mode)” value ([1]; 130 °C, 24 h) was 0.50 ° 2θ and the “FWHM (automatic mode)” value ([1]; 130 °C, 48 h) was 0.50 ° 2θ. The “FWHM (automatic mode)” value ([1]; 130 °C, 72 h) was 0.50 ° 2θ, the “FWHM (automatic mode)” value ([1]; 140 °C, 0 h) was 0.97 ° 2θ and the “FWHM (automatic mode)” value ([1]; 140 °C, 0.25 h) was 0.68 ° 2θ. The “FWHM (automatic mode)” value ([1]; 140 °C, 0.5 h) was 0.58 ° 2θ, the “FWHM (automatic mode)” value ([1]; 140 °C, 1 h) was 0.53 ° 2θ and the “FWHM (automatic mode)” value ([1]; 140 °C, 6 h) was 0.45 ° 2θ. For the same compound, the “FWHM (automatic mode)” value ([1]; 140 °C, 24 h) was 0.45 ° 2θ, the “FWHM (automatic mode)” value ([1]; 140 °C, 48 h) was 0.42 ° 2θ and the “FWHM (automatic mode)” value ([1]; 140 °C, 72 h) was 0.45 ° 2θ. The “Polymorphic form of SNAC determined by XRPD” value (“Polymorphic form of SNAC” below) ([2]; 120 °C, 48 h) was “A & B”, the “Polymorphic form of SNAC” value ([2]; 120 °C, 72 h) was “A & B” and the “Polymorphic form of SNAC” value ([2]; 130 °C, 6 h) was “A & B”. For the same compound, the “Polymorphic form of SNAC” value ([2]; 130 °C, 24 h) was “A & B”, the “Polymorphic form of SNAC” value ([2]; 130 °C, 48 h) was “A & B” and the “Polymorphic form of SNAC” value ([2]; 130 °C, 72 h) was “A & B”. For the same compound, the “Polymorphic form of SNAC” value ([2]; 140 °C, 1 h) was “A & B”, the “Polymorphic form of SNAC” value ([2]; 140 °C, 6 h) was “A & B” and the “Polymorphic form of SNAC” value ([2]; 140 °C, 24 h) was “A & B”. For the same compound, the “Polymorphic form of SNAC” value ([2]; 140 °C, 48 h) was “A & B”, the “Polymorphic form of SNAC” value ([2]; 140 °C, 72 h) was “A & B” and the “onset time of conversion into polymorphic form B” value (from here on “onset time”) ([2]; at 120° C.) was “more than 24 h”. The “onset time” value ([2]; at 130° C.) was over 1 h, the “onset time” value ([2]; at 140° C.) was over 0.5 h and the “conversion of the polymorphic form” value ([2]; exposure for up to 72 h at temperatures up to about 110° C.) was “does not convert”. The “mass increase when subjected to an increase in relative humidity from about 0% to about 65% RH as determined by DVS” value ([3]; sample of FIG. 1) was “less than 1.0%”, the “mass increase when subjected to an increase in relative humidity from about 0% to about 65% RH as determined by DVS” value ([3]; sample of FIG. 2) was “about 1.3%” and the “mass increase when subjected to an increase in relative humidity from about 0% to about 65% RH as determined by DVS” value ([3]; sample of FIG. 3) was “about 2.9%”. For the same compound, the “Moisture absorbed for SNAC at 65% RH determined by DVS” value (shortened to “Moisture absorbed for SNAC at 65% RH”) ([3]; Batch 5, after 24 h at 90 °C) was 1.73%, the “Moisture absorbed for SNAC at 65% RH” value ([3]; Batch 5, after 24 h at 100 °C) was 1.37% and the “Moisture absorbed for SNAC at 65% RH” value ([3]; Batch 5, after 24 h at 110 °C) was 1.21%. The “Moisture absorbed for SNAC at 65% RH” value ([3]; Batch 5, after 24 h at 120 °C) was 0.94%, the “Moisture absorbed for SNAC at 65% RH” value ([3]; Batch 5, after 24 h at 130 °C) was 0.81% and the “Moisture absorbed for SNAC at 65% RH” value ([3]; Batch 5, after 24 h at 140 °C) was 0.74%.
